# Source: ChEMBL document CHEMBL1201862, “PubChem BioAssay data set” (2004)
#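 Exposure lasted 48 hours, with cells grown in 96-well plates and compounds tested at five concentrations. The concentration for 50% growth inhibition is given as GI50.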 The source made the active and inactive calls. No stated cut-off is given here; in the data, active = GI50 up to about 1.1 µM and inactive = higher.
# Assays:
# Experiment in all cases: NCI tumour cell line growth inhibition, 48 h
# SW-620 = test system: SW-620
# EKVX = test system: EKVX
# SK-MEL-2 = test system: SK-MEL-2
# SNB-75 = test system: SNB-75
# HOP-62 = test system: HOP-62
# DU-145 = test system: DU-145
# UACC-62 = test system: UACC-62
# SF-539 = test system: SF-539
# HT-29 = test system: HT-29
# A549 = test system: A549
# NCI-H23 = test system: NCI-H23
# MCF7 = test system: MCF7
# SK-MEL-5 = test system: SK-MEL-5
# HOP-92 = test system: HOP-92
# SN12C = test system: SN12C
# SR = test system: SR
# SK-OV-3 = test system: SK-OV-3
# IGROV-1 = test system: IGROV-1
# UO-31 = test system: UO-31
# RXF 393 = test system: RXF 393
Structure (SMILES),GI50 (SW-620),GI50 (EKVX),GI50 (SK-MEL-2),GI50 (SNB-75),GI50 (HOP-62),GI50 (DU-145),GI50 (UACC-62),GI50 (SF-539),GI50 (HT-29),GI50 (A549),GI50 (NCI-H23),GI50 (MCF7),GI50 (SK-MEL-5),GI50 (HOP-92),GI50 (SN12C),GI50 (SR),GI50 (SK-OV-3),GI50 (IGROV-1),GI50 (UO-31),GI50 (RXF 393)
COC(=O)C[C@@H]1C(C)(C)[C@@H]2O[C@@]34C[C@@H]2C(=O)[C@]1(C)[C@H]3CC[C@@]1(C)[C@H](c2ccoc2)OC(=O)C[C@]14O,> 100 µM (inactive),> 100 µM (inactive),> 100 µM (inactive),> 100 µM (inactive),> 100 µM (inactive),> 100 µM (inactive),> 100 µM (inactive),> 100 µM (inactive),> 100 µM (inactive),> 100 µM (inactive),> 100 µM (inactive),> 100 µM (inactive),> 100 µM (inactive),> 100 µM (inactive),> 100 µM (inactive),> 100 µM (inactive),> 100 µM (inactive),> 100 µM (inactive),,
COC(=O)CCCC(=O)NC1=C(Nc2ccccc2)C(=O)c2ccccc2C1=O,25.2 µM (inactive),24.4 µM (inactive),18.1 µM (inactive),18.4 µM (inactive),,15.2 µM (inactive),3.27 µM (inactive),18.6 µM (inactive),,19.5 µM (inactive),10.6 µM (inactive),15.4 µM (inactive),,21.8 µM (inactive),18 µM (inactive),30.2 µM (inactive),22.5 µM (inactive),16 µM (inactive),21.2 µM (inactive),
COc1ccc([C@H]2[C@H](C)C3=Nc4ccccc4CN32)cc1,39.9 µM (inactive),96.8 µM (inactive),> 100 µM (inactive),,> 100 µM (inactive),> 100 µM (inactive),57.5 µM (inactive),39.3 µM (inactive),35.8 µM (inactive),55.1 µM (inactive),69.8 µM (inactive),59.7 µM (inactive),40.8 µM (inactive),56.5 µM (inactive),63 µM (inactive),36.8 µM (inactive),,63.7 µM (inactive),> 100 µM (inactive),> 100 µM (inactive)
C1=C[C@@H]2c3ccc4cnccc4c3NC[C@@H]2C1,> 100 µM (inactive),16.8 µM (inactive),,> 100 µM (inactive),> 100 µM (inactive),> 100 µM (inactive),58.2 µM (inactive),> 100 µM (inactive),,> 100 µM (inactive),> 100 µM (inactive),> 100 µM (inactive),> 100 µM (inactive),75.2 µM (inactive),> 100 µM (inactive),> 100 µM (inactive),> 100 µM (inactive),> 100 µM (inactive),74.3 µM (inactive),> 100 µM (inactive)
Cc1nc2c(O)cc3c4c([nH]c3c2nc1C)C(=O)CCC4,4.22 µM (inactive),6.37 µM (inactive),2.59 µM (inactive),,5.89 µM (inactive),1.99 µM (inactive),3.66 µM (inactive),2.85 µM (inactive),1.52 µM (inactive),2.4 µM (inactive),6.58 µM (inactive),0.875 µM (active),4.76 µM (inactive),11.2 µM (inactive),4.49 µM (inactive),2.36 µM (inactive),3.76 µM (inactive),,14.3 µM (inactive),0.162 µM (active)
CC1CC[C@@]2(OC1)OC1C[C@H]3[C@@H]4C/C(=N\N(C)C)[C@@]5(O)CC(O)CC[C@]5(C)[C@H]4CC[C@]3(C)C1[C@@H]2C (stereo not given in full),55.8 µM (inactive),,36.7 µM (inactive),,41.3 µM (inactive),> 100 µM (inactive),37.5 µM (inactive),36 µM (inactive),20 µM (inactive),48.6 µM (inactive),30.5 µM (inactive),39.1 µM (inactive),42 µM (inactive),98.2 µM (inactive),43.1 µM (inactive),22.5 µM (inactive),76.6 µM (inactive),89.1 µM (inactive),55.5 µM (inactive),22.9 µM (inactive)
OCCc1ccsc1-c1sc(-c2cc(CCO)c(-c3sccc3CCO)s2)cc1CCO,31.2 µM (inactive),17.1 µM (inactive),14.7 µM (inactive),,14.5 µM (inactive),15.5 µM (inactive),11.6 µM (inactive),,,29 µM (inactive),15.8 µM (inactive),15.7 µM (inactive),15.6 µM (inactive),11.6 µM (inactive),21.3 µM (inactive),20.7 µM (inactive),17.5 µM (inactive),15.7 µM (inactive),12.4 µM (inactive),2.77 µM (inactive)
CCOc1ccc(-n2nnc3c(N)nc(N)nc32)cc1,> 100 µM (inactive),> 100 µM (inactive),> 100 µM (inactive),> 100 µM (inactive),> 100 µM (inactive),> 100 µM (inactive),> 100 µM (inactive),> 100 µM (inactive),> 100 µM (inactive),> 100 µM (inactive),> 100 µM (inactive),> 100 µM (inactive),> 100 µM (inactive),> 100 µM (inactive),> 100 µM (inactive),> 100 µM (inactive),> 100 µM (inactive),> 100 µM (inactive),,
CCOC(=O)c1c(SCC#N)n(-c2ccccc2)c(=S)n(-c2ccccc2)c1=O,29.9 µM (inactive),36.3 µM (inactive),39.5 µM (inactive),25.8 µM (inactive),88.1 µM (inactive),> 100 µM (inactive),23.3 µM (inactive),,41.2 µM (inactive),39.4 µM (inactive),45.7 µM (inactive),37.8 µM (inactive),27 µM (inactive),43.9 µM (inactive),32.4 µM (inactive),44 µM (inactive),35.9 µM (inactive),30.8 µM (inactive),37.5 µM (inactive),
CC(=O)c1ccc(-c2oc(-c3ccccc3)cc2-c2ccc3c(c2)OCO3)s1,> 100 µM (inactive),> 100 µM (inactive),,> 100 µM (inactive),> 100 µM (inactive),> 100 µM (inactive),> 100 µM (inactive),> 100 µM (inactive),> 100 µM (inactive),,19.1 µM (inactive),59 µM (inactive),> 100 µM (inactive),> 100 µM (inactive),> 100 µM (inactive),> 100 µM (inactive),> 100 µM (inactive),> 100 µM (inactive),> 100 µM (inactive),> 100 µM (inactive)
Cc1nc2ccc(S(=O)(=O)Nc3ccc(Cl)cc3)cc2c(=O)n1NC(=O)CNc1ccc(Cl)cc1,> 100 µM (inactive),> 100 µM (inactive),> 100 µM (inactive),> 100 µM (inactive),> 100 µM (inactive),> 100 µM (inactive),> 100 µM (inactive),> 100 µM (inactive),> 100 µM (inactive),> 100 µM (inactive),> 100 µM (inactive),> 100 µM (inactive),,> 100 µM (inactive),> 100 µM (inactive),> 100 µM (inactive),> 100 µM (inactive),> 100 µM (inactive),> 100 µM (inactive),
